In patent US12509482B2, “3′-ketoglycoside compound for the slow release of a volatile alcohol” (GLYCOSCIENCE, S.L., priority 2020, dated 2025):
One block for each molecule: values may come before it.

Tests used:
Assay type in all cases: physicochemical
[1] = Example 19: release of cis-PMD from cis-PMD-O-β-D-3′-ketoglucopyranoside, 0.1 M deuterated phosphate buffer, 33% D6-DMSO, 32° C.
Method: In this example the rate of release of cis-PMD from (2R,3R,5S)-3,5-dihydroxy-2-(hydroxymethyl)-6-((5-(2-hydroxypropan-2-yl)-2-methylcyclohexyl)oxy)tetrahydro-4H-pyran-4-one (cis-PMD-O-β-D-3′-ketoglucopyranoside) in 0.1 M deuterated phosphate buffer solutions of differing pH containing 33% D6-DMSO was determined. 0.1 M of pH 5.8 and 7.4 stock buffered solutions of sodium dihydrogen phosphate and disodium hydrogen phosphate were prepared in deuterated water (D2O).
A stock solution of 10 mg of cis-PMD-O-β-D-3′ketoglucopyranoside in 0.5 mL of D6-DMSO were prepared.
To two parallel reaction vials, where indicated in the reaction table below, was added 0.20 mL of the glycoside substrate solutions in D6-DMSO and […] of low or high pH 0.1M phosphate buffer in D2O and the mixtures incubated by shaking at 32° C. After times indicated in table below, the mixtures where analysed by ^1H-NMR in a 400 MHz instrument.

[2] = Example 28: release of methanol from methyl-β-3′-ketoglucuronide methyl ester, 0.1 M deuterated phosphate buffer, 10% D6-DMSO, 32° C.
Method: In this example the rate of release of methanol from methyl (2R,3R,5S,6S)-3,5-dihydroxy-6-methoxy-4-oxotetrahydro-2H-pyran-2-carboxylate (methyl-β-3′-ketoglucuronide methyl ester) in D2O containing 10% D6-DMSO or in 0.1 M deuterated phosphate buffer solutions of differing pH containing 10% D6-DMSO or in D2O was determined.
(§1) 0.1 M of pH 5.8 and 7.4 stock buffered solutions of sodium dihydrogen phosphate and disodium hydrogen phosphate were prepared in deuterated water (D2O).
A stock solution of 20 mg of methyl-β-3′-ketoglucuronide methyl ester in 0.25 mL of D6-DMSO were prepared.
To two parallel reaction vials, where indicated in the reaction table below, was added 0.05 mL of the glycoside substrate solutions in D6-DMSO and 0.55 mL of low or high pH 0.1M phosphate buffer in D2O and the mixtures incubated by shaking at 32° C. After times indicated in table below, the mixtures where analysed by ^1H-NMR in a 400 MHz instrument.

[3] = Example 20: release of (S)-α-terpineol from (S)-α-terpineol-O-β-D-3′-ketoglucopyranoside, 0.1 M deuterated phosphate buffer, 33% D6-DMSO, 32° C.
Method: In this example the rate of release of (S)-α-terpineol from (2R,3R,5S)-3,5-dihydroxy-2-(hydroxymethyl)-6-((5-(2-hydroxypropan-2-yl)-2-methylcyclohexyl)oxy) tetrahydro-4H-pyran-4-one ((S)-α-terpineol-O-β-D-3′-ketoglucopyranoside) in 0.1 M deuterated phosphate buffer solutions of differing pH containing 33% D6-DMSO was determined.
as §1
A stock solution of 10 mg of (S)-α-terpineol-O-β-D-3′-ketoglucopyranoside in 0.5 mL of D6-DMSO were prepared.
To two parallel reaction vials, where indicated in the reaction table below, was added 0.20 mL of the glycoside substrate solutions in D6-DMSO and 0.40 mL of low or high pH 0.1M phosphate buffer in D2O and the mixtures incubated by shaking at 32° C. After times indicated in table below, the mixtures where analysed by ^1H-NMR in a 400 MHz instrument.

[4] = Example 26: release of geraniol from 2′,6′-diacetyl-geranyl-O-β-D-3′-ketoglucopyranoside, 0.1 M deuterated phosphate buffer, 50% D6-DMSO, 32° C.
Method: In this example the rate of release of geraniol from (((2R,3R,5S)-5-acetoxy-6-(((E)-3,7-dimethylocta-2,6-dien-1-yl)oxy)-3-hydroxy-4-oxotetrahydro-2H-pyran-2-yl)methyl acetate (2′,6′-Diacetyl-geranyl-O-β-D-3′-ketoglucopyranoside) in 0.1 M deuterated phosphate buffer solutions of differing pH containing 50% D6-DMSO was determined.
as §1
A stock solution of 15 mg of 2′,6′-diacetyl-geranyl-O-β-D-3′-ketoglucopyranoside in 1.5 mL of D6-DMSO were prepared.
To two parallel reaction vials, where indicated in the reaction table below, was added 0.35 mL of the glycoside substrate solutions in D6-DMSO and 0.35 mL of low or high pH 0.1M phosphate buffer in D2O and the mixtures incubated by shaking at 32° C. After times indicated in table below, the mixtures where analysed by ^1H-NMR in a 400 MHz instrument.

[5] = Example 15: release of carvacrol from carvacrol-O-β-D-3′-ketoglucopyranoside, 0.1 M deuterated phosphate buffer, 20% D6-DMSO, 32° C.
Method: In this example the rate of release of carvacrol from ((2R,3R,5S)-3,5-dihydroxy-2-(hydroxymethyl)-6-(5-isopropyl-2-methylphenoxy)tetrahydro-4H-pyran-4-one (carvacrol-O-β-D-3′-ketoglucopyranoside) in 0.1 M deuterated phosphate buffer solutions of differing pH containing 20% D6-DMSO was determined. 0.1 M of pH 5.8 and 7.4 stock buffered solutions of sodium dihydrogen phosphate and disodium hydrogen phosphate were prepared in deuterated water (D2O).
A stock solution of 15 mg of carvacrol-O-β-D-3′ketoglucopyranoside in 1.0 mL of D6-DMSO were prepared.
To two parallel reaction vials, where indicated in the reaction table below, was added 0.20 mL of the glycoside substrate solutions in D6-DMSO and […] of low or high pH 0.1M phosphate buffer in D2O or D2O and the mixtures incubated by shaking at 32° C. After times indicated in table below, the mixtures where analysed by ^1H-NMR in a 400 MHz instrument.

[6] = Example 14: release of eugenol from eugenyl-O-β-D-3′-ketoglucopyranoside, 0.1 M deuterated phosphate buffer or D2O, 33% D6-DMSO, 32° C.
Method: In this example the rate of release of eugenol from (2S,3S,5R,6R)-2-(4-allyl-2-methoxyphenoxy)-3,5-dihydroxy-6-(hydroxymethyl)tetrahydro-4H-pyran-4-one (eugenyl-O-β-D-3′-ketoglucopyranoside) in 0.1 M deuterated phosphate buffer solutions of differing pH containing 33% D6-DMSO was determined.
as §1
A stock solution of 15 mg of eugenyl-O-β-D-3′-ketoglucopyranoside in 1.0 mL of D6-DMSO were prepared.
To three parallel reaction vials, where indicated in the reaction table below, was added 0.20 mL of the glycoside substrate solutions in D6-DMSO and 0.40 mL of low or high pH 0.1M phosphate buffer in D2O or D2O and the mixtures incubated by shaking at 32° C. After times indicated in table below, the mixtures where analysed by ^1H-NMR in a 400 MHz instrument.

[7] = Description: alcohol release from model compounds (III), (IV) and compound (V) in buffer, water and skin washings; settings: 20 mg/mL mixture; after 3 d

Structure (SMILES): COC(=O)[C@H]1OC(OC)[C@H](O)C(=O)[C@@H]1O (stereo in doubt) [methyl-β-3′-ketoglucuronide methyl ester, methyl (2S,3R,5S,6S)-3,5-dihydroxy-6-methoxy-4-oxotetrahydro-2H-pyran-2-carboxylate]
methanol release (in words) ([2]; 32° C.): generates methanol at both pH 5.8 and pH 7.4
% Conversion by 1H-NMR ([2]; pH 5.8, 0 h): 0%
% Conversion by 1H-NMR ([2]; pH 5.8, 5 h): 2%
% Conversion by 1H-NMR ([2]; pH 5.8, 20 h): 7%
% Conversion by 1H-NMR ([2]; pH 5.8, 163 h (printed under the 72 h column)): 23%
% Conversion by 1H-NMR ([2]; pH 7.4, 0 h): 0%
% Conversion by 1H-NMR ([2]; pH 7.4, 5 h): 15%
% Conversion by 1H-NMR ([2]; pH 7.4, 20 h): 38%
% Conversion by 1H-NMR ([2]; pH 7.4, 72 h): 100%

Structure (SMILES): CC(=O)OC[C@H]1O[C@@H](OC/C=C(\C)CCC=C(C)C)[C@H](OC(C)=O)C(=O)[C@@H]1O [((2R,3R,5S,6R)-5-acetoxy-6-(((E)-3,7-dimethylocta-2,6-dien-1-yl)oxy)-3-hydroxy-4-oxotetrahydro-2H-pyran-2-yl)methyl acetate]
geraniol release (in words) ([4]; 32° C.): generates geraniol at both pH 5.8 and pH 7.4
% Conversion by 1H-NMR ([4]; pH 5.8, 0 h): 0%
% Conversion by 1H-NMR ([4]; pH 5.8, 5 h): 10%
% Conversion by 1H-NMR ([4]; pH 5.8, 24 h): 20%
% Conversion by 1H-NMR ([4]; pH 5.8, 48 h): 39%
% Conversion by 1H-NMR ([4]; pH 5.8, 120 h): 43%
% Conversion by 1H-NMR ([4]; pH 5.8, 480 h): 92%
% Conversion by 1H-NMR ([4]; pH 5.8, column head 19 (between 120 h and 480 h)): 62%
% Conversion by 1H-NMR ([4]; pH 7.4, 0 h): 0%
% Conversion by 1H-NMR ([4]; pH 7.4, 5 h): 6%
% Conversion by 1H-NMR ([4]; pH 7.4, 24 h): 25%
% Conversion by 1H-NMR ([4]; pH 7.4, 48 h): 33%
% Conversion by 1H-NMR ([4]; pH 7.4, 120 h): 37%
% Conversion by 1H-NMR ([4]; pH 7.4, 480 h): 85%
% Conversion by 1H-NMR ([4]; pH 7.4, column head 19 (between 120 h and 480 h)): 55%

Structure (SMILES): CC(C)=CCC/C(C)=C/CO[C@@H]1O[C@H](CO)[C@@H](O)[C@H](O)[C@H]1O [geranyl-O-β-D-glucopyranoside]
aroma of geraniol on opening the stoppered reaction vessel [7]: not present

The next lines start with results.

% Conversion by 1H-NMR ([1]; pH 5.8, 0 h): 0%
% Conversion by 1H-NMR ([1]; pH 5.8, 3 h): 0%
% Conversion by 1H-NMR ([1]; pH 5.8, 20 h): 0%
% Conversion by 1H-NMR ([1]; pH 5.8, 95 h): <5%
% Conversion by 1H-NMR ([1]; pH 7.4, 0 h): 0%
% Conversion by 1H-NMR ([1]; pH 7.4, 3 h): 12%
% Conversion by 1H-NMR ([1]; pH 7.4, 20 h): 39%
% Conversion by 1H-NMR ([1]; pH 7.4, 95 h): 45%
% Conversion by 1H-NMR ([1]; pH 7.4, 167 h): 85%
Structure (SMILES): C[C@@H]1CC[C@@H](C(C)(C)O)C(O[C@@H]2O[C@H](CO)[C@@H](O)C(=O)[C@H]2O)C1 (mixture of isomers) [cis-PMD-O-β-D-3′-ketoglucopyranoside, (2R,3R,5S,6R)-3,5-dihydroxy-2-(hydroxymethyl)-6-(((1S,2R,5R)-2-(2-hydroxypropan-2-yl)-5-methylcyclohexyl)-oxy)tetrahydro-4H-pyran-4-one]
pH dependence of cis-PMD release (in words) ([1]; 32° C.): only slowly degraded at pH 5.8, but releases cis-PMD at a significantly higher rate at pH 7.4

% Conversion by 1H-NMR ([3]; pH 5.8, 0 h): 0%
% Conversion by 1H-NMR ([3]; pH 5.8, 3 h): 0%
% Conversion by 1H-NMR ([3]; pH 5.8, 20 h): 0%
% Conversion by 1H-NMR ([3]; pH 5.8, 95 h): 0%
% Conversion by 1H-NMR ([3]; pH 7.4, 0 h): 0%
% Conversion by 1H-NMR ([3]; pH 7.4, 3 h): 5%
% Conversion by 1H-NMR ([3]; pH 7.4, 20 h): 28%
% Conversion by 1H-NMR ([3]; pH 7.4, 95 h): 77%
% Conversion by 1H-NMR ([3]; pH 7.4, column head 167): 85%
Structure (SMILES): CC1=CC[C@@H](C(C)(C)O[C@@H]2O[C@H](CO)[C@@H](O)C(=O)[C@H]2O)CC1 [(2R,3R,5S,6S)-3,5-dihydroxy-2-(hydroxymethyl)-6-((2-((S)-4-methylcyclohex-3-en-1-yl)propan-2-yl)oxy)tetrahydro-4H-pyran-4-one]
pH dependence of (S)-α-terpineol release (in words) ([3]; 32° C.): only slowly degraded at pH 5.8, but releases (S)-α-terpineol at a significantly higher rate at pH 7.4

% Conversion by 1H-NMR ([5]; pH 5.8, 1 h): 2%
% Conversion by 1H-NMR ([5]; pH 5.8, 5 h): <5%
% Conversion by 1H-NMR ([5]; pH 5.8, 23 h): <5%
% Conversion by 1H-NMR ([5]; pH 5.8, 69 h): <5%
% Conversion by 1H-NMR ([5]; pH 7.4, 1 h): 8%
% Conversion by 1H-NMR ([5]; pH 7.4, 5 h): 14%
% Conversion by 1H-NMR ([5]; pH 7.4, 23 h): 83%
% Conversion by 1H-NMR ([5]; pH 7.4, 69 h): 100%
Structure (SMILES): Cc1ccc(C(C)C)cc1O[C@@H]1O[C@H](CO)[C@@H](O)C(=O)[C@H]1O [carvacrol-O-β-D-3′-ketoglucopyranoside, (2R,3R,5S,6S)-3,5-dihydroxy-2-(hydroxymethyl)-6-(5-isopropyl-2-methylphenoxy)tetrahydro-4H-pyran-4-one]
pH dependence of carvacrol release (in words) ([5]; 32° C.): only slowly degraded at pH 5.8, but releases carvacrol at a significantly higher rate at pH 7.4

% Conversion by 1H-NMR ([6]; D2O, 1 h): 3%
% Conversion by 1H-NMR ([6]; D2O, 5 h): 3%
% Conversion by 1H-NMR ([6]; D2O, 23 h): 5%
% Conversion by 1H-NMR ([6]; D2O, 69 h): 10%
% Conversion by 1H-NMR ([6]; pH 5.8, 1 h): 3%
% Conversion by 1H-NMR ([6]; pH 5.8, 5 h): 3%
% Conversion by 1H-NMR ([6]; pH 5.8, 23 h): 5%
% Conversion by 1H-NMR ([6]; pH 5.8, 69 h): 5%
% Conversion by 1H-NMR ([6]; pH 7.4, 1 h): 3%
% Conversion by 1H-NMR ([6]; pH 7.4, 5 h): 8%
% Conversion by 1H-NMR ([6]; pH 7.4, 23 h): 60%
% Conversion by 1H-NMR ([6]; pH 7.4, 69 h): 80%
Structure (SMILES): C=CCc1ccc(O[C@@H]2O[C@H](CO)[C@@H](O)C(=O)[C@H]2O)c(OC)c1 [eugenyl-O-β-D-3′-ketoglucopyranoside, (2S,3S,5R,6R)-2-(4-allyl-2-methoxyphenoxy)-3,5-dihydroxy-6-(hydroxymethyl)tetrahydro-4H-pyran-4-one]
pH dependence of eugenol release (in words) ([6]; 32° C.): only slowly degraded at pH 5.8, but releases eugenol at a significantly higher rate at pH 7.4
